Measured values published in patent publication US6365626B1, “BTK inhibitors and methods for their identification and use” (Parker Hughes Institute, priority 1998, dated 2002).

Biological target: T1, BTK (Homo sapiens, UniProt Q06187)
T1 construct: expressed in transfected cells
Experiment: BTK inhibition assay of second generation LFM analogs
Type: biochemical
Settings: Table 4

T1 sequence (Q06187 2-659): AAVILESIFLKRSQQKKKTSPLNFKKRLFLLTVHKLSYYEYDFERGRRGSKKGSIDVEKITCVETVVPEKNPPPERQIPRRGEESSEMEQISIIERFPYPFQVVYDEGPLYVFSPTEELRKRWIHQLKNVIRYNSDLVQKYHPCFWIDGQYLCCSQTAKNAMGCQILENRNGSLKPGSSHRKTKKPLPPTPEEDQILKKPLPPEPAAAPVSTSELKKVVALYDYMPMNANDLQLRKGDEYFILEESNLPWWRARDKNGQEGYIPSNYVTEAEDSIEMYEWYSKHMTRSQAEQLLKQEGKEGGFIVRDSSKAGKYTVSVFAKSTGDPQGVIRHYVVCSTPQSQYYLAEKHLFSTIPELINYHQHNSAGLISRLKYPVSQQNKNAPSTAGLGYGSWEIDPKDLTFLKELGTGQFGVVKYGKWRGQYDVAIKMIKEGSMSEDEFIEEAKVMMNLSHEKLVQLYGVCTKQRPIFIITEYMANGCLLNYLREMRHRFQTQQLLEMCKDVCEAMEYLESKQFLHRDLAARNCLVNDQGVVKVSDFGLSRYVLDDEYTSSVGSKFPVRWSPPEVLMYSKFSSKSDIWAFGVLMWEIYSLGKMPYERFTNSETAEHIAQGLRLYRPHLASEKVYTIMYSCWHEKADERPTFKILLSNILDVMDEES

CC(O)=C(C#N)C(=O)Nc1ccc(Cl)cc1Cl [LFM-A20, α-Cyano-β-hydroxy-β-methyl-N-(2,4-dichlorophenyl)propenamide]
IC50: 37 µM
